# Reference: US20150094321A1, “COMBINATION” (GlaxoSmithKline LLC, priority 2009, published 2015)
# Where two headings read alike, the source gives them in different places.
# Tests used:
# Experiment in all cases: Cell growth inhibition assay
# BT-474-J4 = type: cell-based, human; conditions: BT-474-J4, breast, HER2+, PIK3CA K111N, single agent, read-out: IC50 Single Agent (mean +/- std)
# Protocol: (§1) Human breast tumor lines. BT-474, HCC1419, HCC1937, HCC1954, HCC202, KPL-1, MDA-MB-157, MDA-MB-175-VII, MDA-MB-361, MDA-MB-453, SK-BR-3, SUM225PE, UACC893, and ZR-75-1; lung tumor line, CALU-3; and melanoma line, CHL-1, were from ATCC. Human breast tumor line JIMT-1 was from European Collection of Cell Cultures (UK). Human breast tumor lines SUM149PT, SUM190PT and SUM52PE were from Asterand. These lines were cultured in RPMI 1640 medium containing 10% fetal bovine serum (FBS). A head and neck tumor line, LICR LON HN5 (HN5), a gift from the Institute of Cancer Research, Surrey, U.K, was cultured in Dulbecco's modified Eagle medium (DMEM) containing 5% FBS; KPL-4 breast tumor cell line was kindly provided by Dr Junichi Kurebayashi (Kawasaki Medical School, Okayama, Japan) and cultured in DMEM containing 5% FBS. JIMT-1 is a line derived from a patient clinically resistant to trastuzumab (Herceptin®). BT-474-J4 is a single cell clone derived from a pool of BT-474 cells that were selected to grow in lapatinib to a concentration of 3 μM.
# (§2) All cells were cultured for a minimum of 72 hours prior to cell plating. Cells were assayed in a 96-well tissue culture plate (NUNC 136102) of RPMI medium containing 10% FBS for all cells at 2,000 cells per well except KPL-4 and HN5 which were plated in DMEM containing 5% FBS at 500 cells per well. Approximately 24 hours after plating, cells were exposed to ten, two-fold or three-fold serial dilutions of compound or the combination of the two agents at a constant molar to molar ratio of 1:1 Compound A to Compound B in RPMI media containing 10% FBS or DMEM containing 5% FBS. Cells were incubated in the presence of compounds for 3 days. ATP levels were determined by adding Cell Titer Glo® (Promega) according to the manufacturer's protocol. Briefly, Cell Titer Glo® was added each plate, incubated for 20 minutes then luminescent signal was read on the SpectraMax L plate reader with a 0.5 sec integration time.
# (§3) Inhibition of cell growth was estimated after treatment with compound or combination of compounds for three days and comparing the signal to cells treated with vehicle (DMSO). Cell growth was calculated relative to vehicle (DMSO) treated control wells. Concentration of compound that inhibits 50% of control cell growth (IC50) was interpolated using nonlinear regression with the equation, y=(A+(B−A)/(1+(C/x)̂D))), where A is the minimum response (ymin), B is the maximum response (ymax), C is the inflection point of the curve (EC50) and D is the Hill coefficient. […]
# JIMT-1 = type: cell-based, human; conditions: for IC50: Homo sapiens, JimT-1, breast, HER2+, PIK3CA C420R, single agent, read-out: IC50 Single Agent (mean +/- std); for sensitivity as single agents: JIMT-1
# Protocol: as §1, §2, §3
# SUM225PE = type: cell-based, human; conditions: breast, HER2+, WT, single agent, read-out: IC50 Single Agent (mean +/- std)
# Protocol: as §1, §2, §3
# KPL-1 = type: cell-based; conditions: Homo sapiens; KPL-1, breast, PIK3CA E545K; single agent; read-out: IC50 Single Agent (mean +/- std)
# Protocol: as §1, §2, §3
# HCC202 = type: cell-based; conditions: Homo sapiens; HCC202, breast, HER2+, PIK3CA E545K; single agent; read-out: IC50 Single Agent (mean +/- std)
# Protocol: as §1, §2, §3
# SK-BR-3 = type: cell-based; conditions: Homo sapiens; SK-BR-3, breast, HER2+, WT; single agent; read-out: IC50 Single Agent (mean +/- std)
# Protocol: as §1, §2, §3
# BT-474 = type: cell-based; conditions: Homo sapiens; BT-474, breast, HER2+, PIK3CA K111N; single agent; read-out: IC50 Single Agent (mean +/- std)
# Protocol: as §1, §2, §3
# HCC1937 = type: cell-based; conditions: Homo sapiens; HCC1937, breast, PTEN low; single agent; read-out: IC50 Single Agent (mean +/- std)
# Protocol: as §1, §2, §3
# HCC1419 = type: cell-based; conditions: Homo sapiens; HCC1419, breast, HER2+, WT; single agent; read-out: IC50 Single Agent (mean +/- std)
# Protocol: as §1, §2, §3
# MDA-MB-157 = type: cell-based; conditions: Homo sapiens; MDA-MB-157, breast, WT; single agent; read-out: IC50 Single Agent (mean +/- std)
# Protocol: as §1, §2, §3
IC50 (BT-474-J4; Homo sapiens) [nM],IC50 (HCC202) [nM],IC50 (SK-BR-3) [nM],IC50 (BT-474) [nM],IC50 (HCC1937) [nM],IC50 (HCC1419) [nM],IC50 (MDA-MB-157) [nM],IC50 (BT-474-J4) [nM],SMILES,IC50 (JIMT-1) [nM],sensitivity as single agents (JIMT-1),IC50 (SUM225PE; Homo sapiens) [nM],IC50 (KPL-1) [nM],IC50 (SUM225PE) [nM]
> 1000,> 1000,> 1000,> 1000,> 1000,> 1000,> 1000,,"CC(=O)Nc1cccc(-n2c(=O)n(C3CC3)c(=O)c3c(Nc4ccc(I)cc4F)n(C)c(=O)c(C)c32)c1 [Compound A, N-{3-[3-cyclopropyl-5-(2-fluoro-4-iodo-phenylamino)-6,8-dimethyl-2,4,7-trioxo-3,4,6,7-tetrahydro-2H-pyrido[4,3-d]pyrimidin-1-yl]phenyl}acetamide]",> 1000,not sensitive,> 1000,> 1000,
271,> 1000,> 1000,> 1000,> 1000,> 1000,> 1000,217,"Cn1ncc(Cl)c1-c1cc(C(=O)N[C@H](CN)Cc2ccc(F)c(F)c2)oc1Cl [Compound B, N-{(1S)-2-amino-1-[(3,4-difluorophenyl)methyl]ethyl}-5-chloro-4-(4-chloro-1-methyl-1H-pyrazol-5-yl)-2-furancarboxamide]",> 1000,not sensitive,< 1000,> 1000,529
